From patent US12286442B2, “Methods and materials for increasing transcription factor eb polypeptide levels” (University of Pittsburgh—Of the Commonwealth System of …, priority 2019, dated 2025)

How the values were obtained:
BEAS-2B cells = assay: Toxicity: compound concentration needed to induce greater than 50 percent of cell loss; type: cell-based, human; conditions: 18 hours incubation
Method in brief: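 Reported value is the concentration giving greater than 50 percent cell loss, grouped into bins (≥25 μM; between 1 and 25 μM; ≤1 μM as "+++"). Measured by high-content imaging of DAPI-stained BEAS-2B TFEB-EGFP cells fixed after 18 h compound exposure.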

TFEB = assay: High content screen measuring TFEB nuclear accumulation (TFEB nuclear/cytosol ratio) in BEAS-2B cells stably expressing TFEB-EGFP; type: cell-based, human; conditions: 18 hours incubation
Method in brief: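 Readout: lowest compound concentration giving a 25% rise in nuclear/cytosol TFEB-GFP ratio, from DAPI-masked nuclear and mask-expanded cytosolic signals. Cells (BEAS-2B, TFEB-EGFP stable, ~2300–2500/well) rested 8 hours, then treated 18 hours with compound serial dilutions in 2% FBS medium before PFA fixation and DAPI staining.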

Row | SMILES | toxicity (compound concentration needed to induce greater than 50 percent of cell loss) (BEAS-2B cells) | efficacy (minimal compound concentration needed to increase TFEB nuclear/cytosol ratio by 25%) (TFEB)
1 | c1cnc2cc(-c3ccncc3)nc(Nc3ccc4[nH]ccc4c3)c2c1 [Compound 242] | + (cell loss of greater than 50 percent at a concentration that equals or is greater than 25 μM was represented as) | +++ (“+++” equals ≤1 μM)
2 | CC(C)(C)c1cc2cc(Nc3nc(-c4ccncc4)cc4ncccc34)ccc2[nH]1 [Compound 243] | + (cell loss of greater than 50 percent at a concentration that equals or is greater than 25 μM was represented as) | +++ (“+++” equals ≤1 μM)
3 | c1cnc2cc(-c3ccncc3)nc(Nc3ccc4[nH]c(C5CC5)cc4c3)c2c1 [Compound 244] | + (cell loss of greater than 50 percent at a concentration that equals or is greater than 25 μM was represented as) | +++ (“+++” equals ≤1 μM)
4 | Fc1cccc(Nc2nc(-c3ccncc3)cc3ncccc23)c1 [Compound 245] | + (cell loss of greater than 50 percent at a concentration that equals or is greater than 25 μM was represented as) | +++ (“+++” equals ≤1 μM)
5 | Fc1cc(Nc2nc(-c3ccncc3)cc3ncccc23)cc2sc(C3CC3)nc12 [Compound 246] | + (cell loss of greater than 50 percent at a concentration that equals or is greater than 25 μM was represented as) | +++ (“+++” equals ≤1 μM)
6 | c1cncc(-c2cc3ncccc3c(Nc3ccc4nc(C5CC5)sc4c3)n2)c1 [Compound 247] | + (cell loss of greater than 50 percent at a concentration that equals or is greater than 25 μM was represented as) | ++ (“++” equals between ≤25 μM and >1 μM)
7 | c1ccc(-c2cc3ncccc3c(Nc3ccc4nc(C5CC5)sc4c3)n2)nc1 [Compound 248] | + (cell loss of greater than 50 percent at a concentration that equals or is greater than 25 μM was represented as) | ++ (“++” equals between ≤25 μM and >1 μM)
8 | Fc1c(-c2ccncc2)nc(Nc2ccc3nc(C4CC4)sc3c2)c2cccnc12 [Compound 332] | + (cell loss of greater than 50 percent at a concentration that equals or is greater than 25 μM was represented as) | +++ (“+++” equals ≤1 μM)
9 | Cc1c(-c2ccncc2)nc(Nc2ccc3nc(C4CC4)sc3c2)c2cccnc12 [Compound 333] | + (cell loss of greater than 50 percent at a concentration that equals or is greater than 25 μM was represented as) | +++ (“+++” equals ≤1 μM)
10 | COc1ccc2nc(-c3ccncc3)nc(Nc3ccc4nc(C(C)C)sc4c3)c2c1 [Compound 352] | + (cell loss of greater than 50 percent at a concentration that equals or is greater than 25 μM was represented as) | ++ (“++” equals between ≤25 μM and >1 μM)
11 | COc1ccc2nc(-c3ccncc3)nc(Nc3ccc4nc(C(C)C)sc4c3)c2c1 [Compound 353] | + (cell loss of greater than 50 percent at a concentration that equals or is greater than 25 μM was represented as) | ++ (“++” equals between ≤25 μM and >1 μM)
12 | CC(C)c1nc2ccc(Nc3nc(-c4ccncc4)nc4ccc(F)cc34)cc2s1 [Compound 354] | + (cell loss of greater than 50 percent at a concentration that equals or is greater than 25 μM was represented as) | + (“+” equals >25 μM)
13 | CC(C)c1nc2ccc(Nc3nc(-c4ccncc4)nc4cc(F)ccc34)cc2s1 [Compound 355] | + (cell loss of greater than 50 percent at a concentration that equals or is greater than 25 μM was represented as) | ++ (“++” equals between ≤25 μM and >1 μM)
14 | CCc1nc2ccc(Nc3nc(-c4ccncc4)nc4ncccc34)cc2o1 [Compound 356] | + (cell loss of greater than 50 percent at a concentration that equals or is greater than 25 μM was represented as) | +++ (“+++” equals ≤1 μM)
15 | FC(F)(F)c1nc2ccc(Nc3nc(-c4ccncc4)nc4ncccc34)cc2o1 [Compound 358] | + (cell loss of greater than 50 percent at a concentration that equals or is greater than 25 μM was represented as) | ++ (“++” equals between ≤25 μM and >1 μM)
16 | CCCCc1nc2ccc(Nc3nc(-c4ccncc4)nc4ccccc34)cc2o1 [Compound 359] | + (cell loss of greater than 50 percent at a concentration that equals or is greater than 25 μM was represented as) | + (“+” equals >25 μM)
17 | CCc1nc2ccc(Nc3nc(-c4ccncc4)nc4ccccc34)cc2o1 [Compound 360] | + (cell loss of greater than 50 percent at a concentration that equals or is greater than 25 μM was represented as) | + (“+” equals >25 μM)
18 | CCc1nc2ccc(Nc3nc(-c4ccncc4)nc4cccc(OC)c34)cc2s1 [Compound 361] | + (cell loss of greater than 50 percent at a concentration that equals or is greater than 25 μM was represented as) | ++ (“++” equals between ≤25 μM and >1 μM)
19 | CCc1nc2ccc(Nc3nc(-c4ccncc4)nc4c(OC)cccc34)cc2s1 [Compound 362] | + (cell loss of greater than 50 percent at a concentration that equals or is greater than 25 μM was represented as) | + (“+” equals >25 μM)
20 | CCCc1nc2ccc(Nc3nc(-c4ccncc4)nc4ncccc34)cc2o1 [Compound 363] | + (cell loss of greater than 50 percent at a concentration that equals or is greater than 25 μM was represented as) | +++ (“+++” equals ≤1 μM)
